Test results published in patent US11351142B2, “Composition and method for treating neuronal ceroid lipofuscinosis” (Rush University Medical Center, priority 2012, dated 2022).

Legend:
[1] = tested on: TPP1; assay: TPP1 activity assay on cell extracts of treated mouse brain cells; assay type: cell-based; settings: WT astrocytes; 25 μM gemfibrozil and 10 μM fenofibrate, 24 hrs
Description: TPP-I activity was assayed in 96-well format plates using the following modification of the method described by Vines and Warburton (6). Briefly, samples and substrate (40 μL) were mixed in individual wells of polystyrene 96-well plate (Nalge Nunc International). […] A3401; Sigma; diluted freshly from a 25 mmol/L stock solution in dimethyl sulfoxide stored at -20° C.) in 0.15 mol/L NaCl-1 g/L Triton X-100-0.1 mol/L sodium acetate, adjusted to pH 4.0 at 20° C. Plates were centrifuged briefly to dispel bubbles and placed in a 37° C. Plates were mixed for 10 s before each reading. The plates were read from the bottom using 360/20 nm excitation and 460/25 nm emission filters. Prior to the assay, the optimum substrate concentration and total protein in cell extract that can used to get best results were determined in the same manner described above, using different substrate concentrations and protein concentrations in the cell extract.

[2] = tested on: CLN2 knockdown mouse astrocytes; assay: Peroxide assay in CLN2 knockdown mouse astrocytes; assay type: cell-based; settings: astrocytes transfected with CLN2 siRNA 36 hrs, gemfibrozil (25 μM) 6 hrs
Description: Mouse astrocytes were transfected with CLN2 siRNA (1.0 μg) for 36 hrs and treated with gemfibrozil (25 μM) for 6 hrs. Cells were then harvested and subjected to peroxide assay.

[3] = tested on: primary human neurons; assay: LysoTracker labeling of lysosomes in primary human neurons; assay type: cell-based; settings: 25 μM gemfibrozil and 10 μM fenofibrate, 24 hours
Excerpt: (§1) DAPI was used to visualize nuclei. Results represent 3 independent experiments.

[4] = tested on: Cln2 mRNA; assay: Cln2 mRNA expression by semi-quantitative RT-PCR and real-time PCR in mouse primary astrocytes; assay type: cell-based
Description: (§2) Astroglia were isolated from mixed glial cultures as described (17,18) according to the procedure of Giulian and Baker (19). Briefly, on day 9, the mixed glial cultures were washed three times with Dulbecco's modified Eagle's medium/F-12 and subjected to shaking at 240 rpm for 2 h at 37° C. on a rotary shaker to remove microglia. After 2 days, the shaking was repeated for 24 h for the removal of oligodendroglia and to ensure the complete removal of all nonastroglial cells. The attached cells were seeded onto new plates for further studies. Total RNA was isolated from mouse primary astrocytes and human primary astrocytes using RNA-Easy Qiagen (Valencia, Calif.) kit following manufactures protocol. Semi-quantitative RT-PCR was carried out as described earlier (24) using oligo (dT) 12-18 as primer and moloney murine leukemia virus reverse transcriptase (MMLV-RT, Invitrogen) in a 20 μl reaction mixture. The resulting cDNA was appropriately amplified using Promega Master Mix (Madison, Wis.) and the following primers (Invitrogen) for murine genes: The mRNA quantification was performed using the ABI-Prism7700 sequence detection system (Applied Biosystems, Foster City, Calif.) using iTaq™ Fast Supermix With ROX (Bio-Rad, Hercules, Calif.) and the following 6-FAM/ZEN/IBFQ-labeled primers for murine genes: Cln2 and Gapdh (Integrated DNA Technologies Coralville, Iowa). The mRNA expression of the targeted genes was normalized to the level of Gapdh mRNA and data was processed by the ABI Sequence Detection System 1.6 software.

[5] = tested on: Cln2 mRNA; assay: Cln2 mRNA expression by RT-PCR and real-time PCR in human primary astrocytes; assay type: cell-based
Description: Primary human astroglia were prepared as described (20,21). […] Briefly, 11- to 17-week-old fetal brains obtained from the Human Embryology Laboratory (University of Washington, Seattle, Wash., USA) were dissociated by trituration and trypsinization. On 9th day, these mixed glial cultures were placed on a rotary shaker at 240 rpm at 37° C. for 2 h to remove loosely attached microglia. On 11th day, the flasks were shaken again at 190 rpm at 37° C. for 18 h to remove oligodendroglia. The attached cells remaining were primarily astrocytes. These cells were trypsinized and subcultured in complete media at 37° C. with 5% CO2 in air to yield more viable and healthy cells. […] Semi-quantitative RT-PCR was carried out as described earlier (24) using oligo (dT) 12-18 as primer and moloney murine leukemia virus reverse transcriptase (MMLV-RT, Invitrogen) in a 20 μl reaction mixture. The resulting cDNA was appropriately amplified using Promega Master Mix (Madison, Wis.) and the following primers (Invitrogen) for murine genes: The mRNA quantification was performed using the ABI-Prism7700 sequence detection system (Applied Biosystems, Foster City, Calif.) using iTaq™ Fast Supermix With ROX (Bio-Rad, Hercules, Calif.) and the following 6-FAM/ZEN/IBFQ-labeled primers for murine genes: Cln2 and Gapdh (Integrated DNA Technologies Coralville, Iowa). […]

[6] = tested on: TPP1; assay: Immunofluorescence for TPP1 in SH-SY5Y cells; assay type: cell-based, human; settings: 25 μM gemfibrozil and 10 μM fenofibrate, 24 hrs
Description: Immunocytochemistry was performed as described earlier (25). Briefly, 8 well chamber slides containing mouse primary astrocytes, mouse neurons, human primary astrocytes or SH-SY5Y cells were cultured to 70-80% confluence were fixed with chilled Methanol (Fisher Scientific, Waltham, Mass.) overnight, followed by two brief rinses with filtered PBS. Samples were blocked with 2% BSA (Fisher Scientific) in PBS containing Tween 20 (Sigma) and Triton X-100 (Sigma) for 30 min and incubated at room temperature under shaking conditions for 2 hr in PBS containing the following anti-mouse primary antibodies: […] Santa Cruz Biotech, Santa Cruz, Calif.), GFAP, (1:100; Santa Cruz), and 3-tubulin (1:5000; Millipore). After four 15 min washes in filtered PBS, the slides were further incubated with Cy2 or Cy5-labeled secondary antibodies (all 1:200; Jackson ImmunoResearch, West Grove, Pa.) for 1 hr under similar shaking conditions. Following four 15 minute washes with filtered PBS, cells were incubated for 4-5 min with 4′, 6-diamidino-2-phenylindole (DAPI, 1:10,000; Sigma). The samples were run in an EtOH and Xylene (Fisher) gradient, mounted and observed under Olympus BX41 fluorescence microscope.

[7] = tested on: Cln1 mRNA; assay: Cln1 mRNA expression by semi-quantitative RT-PCR in mouse primary astrocytes; assay type: cell-based; settings: 25 μM gemfibrozil, 2, 6, 12, and 24 hrs
Description: as §2, with “The mRNA quantification was performed using the ABI-Prism7700 sequence detection system (Applied Biosystems, Foster City, Calif.) using iTaq™ Fast Supermix With ROX (Bio-Rad, Hercules, Calif.) and the following 6-FAM/ZEN/IBFQ-labeled primers for murine genes: Cln2 and Gapdh (Integrated DNA Technologies Coralville, Iowa). The mRNA expression of the targeted genes was normalized to the level of Gapdh mRNA and data was processed by the ABI Sequence Detection System 1.6 software.” left out

[8] = tested on: Cln3 mRNA; assay: Cln3 mRNA expression by semi-quantitative RT-PCR in mouse primary astrocytes; assay type: cell-based; settings: 25 μM gemfibrozil, 2, 6, 12, and 24 hrs
Description: as §2, with “The mRNA quantification was performed using the ABI-Prism7700 sequence detection system (Applied Biosystems, Foster City, Calif.) using iTaq™ Fast Supermix With ROX (Bio-Rad, Hercules, Calif.) and the following 6-FAM/ZEN/IBFQ-labeled primers for murine genes: Cln2 and Gapdh (Integrated DNA Technologies Coralville, Iowa). The mRNA expression of the targeted genes was normalized to the level of Gapdh mRNA and data was processed by the ABI Sequence Detection System 1.6 software.” left out

[9] = tested on: primary human astrocytes; assay: LysoTracker labeling of lysosomes in primary human astrocytes; assay type: cell-based; settings: 25 μM gemfibrozil and 10 μM fenofibrate, 24 hrs
Excerpt: as §1

Cc1ccc(C)c(OCCCC(C)(C)C(=O)O)c1 [gemfibrozil]
TPP1 enzymatic activity [1]: drastically increased
peroxide production [2]: reduces peroxide production
lysosomal proliferation (LysoTracker) [3]: upregulation
Cln2 mRNA expression ([4]; PPARα−/− astrocytes, different concentrations, 24 hrs): little or no effect
Cln2 mRNA expression in presence of PPARγ antagonist ([4]; WT astrocytes pre-treated with GW9662 for 30 min): increased expression
Cln2 level (quantitative real time PCR) ([4]; astrocytes with RXRα knockdown (RXRα siRNA), gemfibrozil (10 μM), RA (0.5 μM) alone and in combination): almost unresponsive
increase in Cln2 mRNA levels (quantitative real time PCR) ([4]; mouse primary astrocytes, 24 hrs, RA 0.5 μM, gemfibrozil 10 μM, combination 10 μM gemfibrozil and 0.5 μM RA): ~4 fold
Cln2 mRNA levels (RT-PCR and qPCR) ([4]; mouse primary astrocytes, serum free media, different doses and time points, maximum increase at 24 hrs of 25 μM gemfibrozil): upregulated
increase in Cln2 mRNA levels, maximum of time course ([5]; 25 μM gemfibrozil, at 12 hrs): ~10 fold
increase in Cln2 mRNA levels, maximum of dose response ([5]; 25 uM gemfibrozil, different concentrations for 12 hrs): ~15 fold
level of TPP1 protein (immunofluorescence) [6]: considerable increase
Cln1 mRNA expression [7]: increase within 12 to 24 h
Cln3 mRNA expression [8]: increase within 12 to 24 h
lysosomal proliferation (LysoTracker) [9]: upregulation
